In ChEMBL document CHEMBL1149535, “2-Arylimino-5,6-dihydro-4H-1,3-thiazines as a new class of cannabinoid receptor agonists. Part 2: orally bioavailable compounds” (Bioorg Med Chem Lett, 2007):

How the values were obtained:
[1] = target: Cannabinoid receptor 2 (Homo sapiens, UniProt P34972); assay: Binding affinity to human CB2 receptor
[2] = target: Cannabinoid receptor 1 (Homo sapiens, UniProt P21554); assay: Binding affinity to human CB1 receptor
[3] = Total clearance in rat at 0.5 mg/kg, iv and 1 mg/kg, po; type: ADME, organism-based; settings: in vivo
[4] = Oral bioavailability in rat at 1 mg/kg; type: ADME, organism-based; settings: in vivo
[5] = target: Cannabinoid receptor 2 (Mus musculus, UniProt P47936); assay: Binding affinity to mouse CB2 receptor
[6] = target: Cannabinoid receptor 1 (Mus musculus, UniProt P47746); assay: Binding affinity to mouse CB1 receptor
[7] = Half life in rat at 2 mg/kg, iv and 30 mg/kg, po; type: ADME, organism-based; settings: in vivo
[8] = Total clearance in rat at 2 mg/kg, iv and 30 mg/kg, po; type: ADME, organism-based; settings: in vivo
[9] = AUC in rat at 30 mg/kg, po; type: ADME, organism-based; set-up: dose 30 mg/kg, route oral; settings: plasma
[10] = Oral bioavailability in rat at 30 mg/kg; type: ADME, organism-based; settings: in vivo
[11] = system: Mus musculus; assay: Analgesic activity against formalin-induced acute pain in iv dosed mouse; type: functional
[12] = system: Mus musculus; assay: Analgesic activity against formalin-induced inflammatory pain in iv dosed mouse; type: functional
[13] = system: Mus musculus; assay: Analgesic activity against formalin-induced acute pain in po dosed mouse; type: functional
[14] = system: Mus musculus; assay: Analgesic activity against formalin-induced inflammatory pain in po dosed mouse; type: functional

Chain of Cannabinoid receptor 1 (Homo sapiens, UniProt P21554) (P21554 whole entry): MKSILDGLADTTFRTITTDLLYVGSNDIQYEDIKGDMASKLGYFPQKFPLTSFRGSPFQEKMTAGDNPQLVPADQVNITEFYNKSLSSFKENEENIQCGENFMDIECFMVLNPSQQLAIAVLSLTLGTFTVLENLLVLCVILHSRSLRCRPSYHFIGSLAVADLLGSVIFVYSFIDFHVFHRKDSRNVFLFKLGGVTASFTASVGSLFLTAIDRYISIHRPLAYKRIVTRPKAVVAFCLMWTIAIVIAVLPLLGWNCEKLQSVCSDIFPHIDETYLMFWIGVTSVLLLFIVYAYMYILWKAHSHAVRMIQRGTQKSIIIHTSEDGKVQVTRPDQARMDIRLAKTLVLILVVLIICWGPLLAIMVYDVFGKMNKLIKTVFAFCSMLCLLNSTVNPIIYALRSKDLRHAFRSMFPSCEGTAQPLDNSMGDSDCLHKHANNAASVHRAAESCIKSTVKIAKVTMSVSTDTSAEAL
Chain of Cannabinoid receptor 2 (Mus musculus, UniProt P47936) (P47936 whole entry): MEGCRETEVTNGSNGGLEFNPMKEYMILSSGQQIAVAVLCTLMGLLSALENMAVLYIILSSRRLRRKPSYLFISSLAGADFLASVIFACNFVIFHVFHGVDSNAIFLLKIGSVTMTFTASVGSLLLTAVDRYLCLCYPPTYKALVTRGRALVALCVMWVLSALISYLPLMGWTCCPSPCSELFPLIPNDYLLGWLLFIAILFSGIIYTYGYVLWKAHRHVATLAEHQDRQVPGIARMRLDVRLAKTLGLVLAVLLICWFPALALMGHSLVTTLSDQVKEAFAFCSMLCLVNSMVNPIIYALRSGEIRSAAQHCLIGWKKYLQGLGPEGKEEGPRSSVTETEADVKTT
Chain of Cannabinoid receptor 1 (Mus musculus, UniProt P47746) (P47746 whole entry): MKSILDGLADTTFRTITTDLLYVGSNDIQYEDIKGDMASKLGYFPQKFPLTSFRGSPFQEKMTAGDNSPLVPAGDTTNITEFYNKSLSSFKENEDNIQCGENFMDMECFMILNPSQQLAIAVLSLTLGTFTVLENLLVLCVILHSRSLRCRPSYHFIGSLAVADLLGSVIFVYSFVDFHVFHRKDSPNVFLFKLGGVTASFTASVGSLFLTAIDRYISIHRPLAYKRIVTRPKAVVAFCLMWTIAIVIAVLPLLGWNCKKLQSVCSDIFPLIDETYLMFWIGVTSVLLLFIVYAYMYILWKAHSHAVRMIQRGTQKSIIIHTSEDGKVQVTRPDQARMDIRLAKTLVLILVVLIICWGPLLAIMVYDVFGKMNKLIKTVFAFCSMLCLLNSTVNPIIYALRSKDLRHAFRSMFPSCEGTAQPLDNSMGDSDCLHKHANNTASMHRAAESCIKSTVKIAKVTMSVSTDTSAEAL
Chain of Cannabinoid receptor 2 (Homo sapiens, UniProt P34972) (P34972 whole entry): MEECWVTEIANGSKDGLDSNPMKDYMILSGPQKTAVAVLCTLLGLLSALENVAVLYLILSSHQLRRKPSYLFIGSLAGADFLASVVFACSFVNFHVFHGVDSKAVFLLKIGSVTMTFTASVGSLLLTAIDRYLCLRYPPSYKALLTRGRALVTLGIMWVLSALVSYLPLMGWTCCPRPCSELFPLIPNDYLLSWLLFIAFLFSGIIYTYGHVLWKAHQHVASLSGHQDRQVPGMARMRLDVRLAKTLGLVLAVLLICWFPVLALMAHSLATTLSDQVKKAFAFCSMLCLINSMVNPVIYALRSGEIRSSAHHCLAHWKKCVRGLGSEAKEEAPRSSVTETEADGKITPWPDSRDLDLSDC

Compound | Ki [1] [nM] | Ki [2] [nM] | clearance [3] [mL/min/kg] | bioavailability [4] [%] | other results
CSC(=S)N1CC2(CCCCC2)CS/C1=N\c1cccc(C(C)C)c1 | 2.5 | 100 | – | – | –
COc1ccccc1/N=C1\SCC2(CCCCC2)CN1C(=S)SC | 1.1 | 13 | 75.9 | 0.4 | –
COc1cccc(/N=C2\SCC3(CCCCC3)CN2C(=S)SC)c1 | 1 | 108 | 45.1 | 13 | –
COc1ccc(/N=C2\SCC3(CCCCC3)CN2C(=S)SC)cc1 | 3.8 | 671 | – | – | –
CCCc1ccc(/N=C2\SCC3(CCCCC3)CN2C(=S)SC)cc1 | 7 | 514 | – | – | –
CSC(=S)N1CC2(CCCCC2)CS/C1=N\c1ccc(C(F)(F)F)cc1 | 18 | 1730 | – | – | –
CSC(=S)N1CC2(CCCCC2)CS/C1=N\c1cccc2c1CCCC2 | 0.2 | 15 | 19.1 | 44 | Ki [5]: 0.7 nM; Ki [6]: 6 nM; half-life [7]: 246 min; clearance [8]: 23.3 mL/min/kg; AUC [9]: 1500 ng·h/mL; bioavailability [10]: 7%; ED50 [11]: 0.3 mg/kg; ED50 [12]: 0.2 mg/kg; ED50 [13]: 2.5 mg/kg; ED50 [14]: 4 mg/kg
CSC(=S)N1CC2(CCCCC2)CS/C1=N\c1ccc2c(c1)CCCC2 | 24 | 396 | – | – | –
CSC(=S)N1CC2(CCCCC2)CS/C1=N\c1ccc(OC(F)(F)F)cc1 | 6 | 1500 | 7.4 | 24 | Ki [5]: 7 nM; Ki [6]: 1210 nM; half-life [7]: 144 min; clearance [8]: 25.9 mL/min/kg; AUC [9]: 3900 ng·h/mL; bioavailability [10]: 20%; ED50 [11]: > 20 mg/kg; ED50 [12]: > 20 mg/kg; ED50 [13]: > 100 mg/kg; ED50 [14]: > 100 mg/kg
CCOc1ccccc1/N=C1\SCC2(CCCCC2)CN1C(=S)SC | 6.3 | 358 | – | – | –
CSC(=S)N1CC2(CCCCC2)CS/C1=N\c1ccccc1C(F)(F)F | 1.1 | 418 | – | – | –
CSC(=S)N1CC2(CCCCC2)CS/C1=N\c1cccc(C)c1C | 1 | 114 | – | – | –
CSC(=S)N1CC2(CCCCC2)CS/C1=N\c1cccc2ccccc12 | 6 | 30 | 17.7 | 53 | Ki [5]: 4 nM; Ki [6]: 6.8 nM; half-life [7]: 90 min; clearance [8]: 30.1 mL/min/kg; AUC [9]: 6100 ng·h/mL; bioavailability [10]: 36%; ED50 [11]: 0.4 mg/kg; ED50 [12]: 0.4 mg/kg; ED50 [13]: 1.5 mg/kg; ED50 [14]: 1 mg/kg
CSC(=S)N1CC2(CCCCC2)CS/C1=N\c1cccc2nsnc12 | 1.3 | 44 | 60.4 | – | –
CSC(=S)N1CC2(CCCCC2)CS/C1=N\c1cccc2nonc12 | 0.9 | 246 | – | – | –
CSC(=S)N1CC(C)(C)CS/C1=N\c1ccccc1C(C)C | – | > 5000 | 63.4 | 10 | –
CSC(=S)N1CC2(CC2)CS/C1=N\c1ccccc1C(C)C | 65 | – | 85.1 | 14 | –
CSC(=S)N1CC2(CCCC2)CS/C1=N\c1ccccc1C(C)C | 1 | 541 | 54.2 | 8.9 | –
CSC(=S)N1CC2(CCCCC2)CS/C1=N\c1cccc2c1CCCN2C | 1.1 | 85 | – | – | –
CSC(=S)N1CC2(CCCCC2)CS/C1=N\c1cccc2c1CCC2 | 5 | 243 | – | – | –
CCC1(CC)CS/C(=N\c2ccccc2C(C)C)N(C(=S)SC)C1 | 9 | > 5000 | 48.3 | 19 | –
CSC(=S)N1CC2(CCCCC2)CS/C1=N\c1ccc(C(C)C)cc1 | 23 | 1260 | – | – | –
CCc1ccc(/N=C2\SCC3(CCCCC3)CN2C(=S)SC)cc1 | 1.2 | 95 | – | – | –
CSC(=S)N1CC2(CCCCC2)CS/C1=N\c1ccc(C#N)cc1 | 2.3 | 173 | – | – | –
CSC(=S)N1CC2(CCCCC2)CS/C1=N\c1ccccc1OC(F)(F)F | 12 | 711 | – | – | –
CSC(=S)N1CC2(CCCCC2)CS/C1=N\c1cccc2ncccc12 | 11 | 763 | 121 | 42 | –
CSC(=S)N1CC2(CCCCC2)CS/C1=N\c1ccccc1C(C)C | 0.8 | 122 | 18.6 | 32 | Ki [5]: 1.2 nM; Ki [6]: 80 nM; half-life [7]: 150 min; clearance [8]: 38.2 mL/min/kg; AUC [9]: 3200 ng·h/mL; bioavailability [10]: 24%; ED50 [11]: 1.2 mg/kg; ED50 [12]: 1.1 mg/kg; ED50 [13]: 17.5 mg/kg; ED50 [14]: 17.5 mg/kg
CCCCCc1cc(O)c2c(c1)OC(C)(C)[C@@H]1CCC(C)=C[C@@H]21 [DRONABINOL] | – | – | – | – | ED50 [11]: 0.4 mg/kg; ED50 [12]: 0.3 mg/kg
CN1CC[C@]23c4c5ccc(O)c4O[C@H]2[C@@H](O)C=C[C@H]3[C@H]1C5 [MORPHINE] | – | – | – | – | ED50 [11]: 1.1 mg/kg; ED50 [12]: 1.1 mg/kg; ED50 [13]: 27.3 mg/kg; ED50 [14]: 9.8 mg/kg
